Data as given in US20220064141A1, “BENZOPYRIDONE HETEROCYCLIC COMPOUND AND USE THEREOF” (BrightGene Bio-Medical Technology Co., Ltd., priority 2019, published 2022).

Tested on: NCI-H358 human non-small cell lung cancer cell with KRAS G12C mutation
Test: Cell Titer-Glo cell viability, NCI-H358 cells (72 h)
Format: cell-based
Source text: Effect Example 1: Pharmacodynamic Assay 1 (Determination of the efficacy of the compounds of the present disclosure on NCI-H358 human non-small cell lung cancer cell with KRAS G12C mutation)
The following method was used to determine the effect of the compounds of the present disclosure on tumor cell proliferation.
For the KRAS G12C subtype, NCI-H358 non-small cell lung cancer cells with KRAS G12C mutation were used to determine the efficacy of the compounds in inhibiting cancer cell viability. NCI-H358 cells were cultured in a DMEM medium containing 10% fetal bovine serum, 100 U penicillin and […] streptomycin. The cells were cultured in an incubator with 5% CO2 at 37° C. Cancer cell viability was evaluated by determining the content of ATP with Cell Titer-Glo® kit (Luminescent Cell Viability Assay kit, please refer to the manufacturer's instructions for use) and evaluating the inhibition of cell growth.
The experimental method was proceeded in accordance with the steps in the instructions for the kit, and was described briefly as follows. The test compounds were first dissolved in DMSO to prepare stock solutions, and then the stock solutions were subjected to gradient dilution with the culture media of the corresponding cells, thereby preparing test samples. The final concentrations of the compounds were in the range of 30 μM to 0.01 nM. Tumor cells in logarithmic growth phase were seeded into a 96-well cell culture plate at an appropriate density. After the cell culture plate was left overnight in an incubator with 5% CO2 at 37° C., the test compound samples were added thereto and then the cells were further cultured for 72 hours. After the incubation was complete, an appropriate volume of Cell Titer-Glo® reagent was added into each well, and the cells were incubated at 37° C. for 1 to 4 hours. Then, the […] was read on a microplate reader.

[1] = Homo sapiens, NCI-H358, 72 h, class symbols

| SMILES | IC50 [1] [nM] | further results |
| --- | --- | --- |
| C=CC(=O)N1CCN(c2c(C#N)c(=O)n(-c3ccccc3C(C)C)c3cc(-c4c(C)ccc5[nH]ncc45)c(Cl)cc23)[C@H](C)C1 (single isomer, unassigned) [Compound I-3-1] |  | IC50 (numeric values): 1980 nM |
| C=CC(=O)N1CCN(c2c(C#N)c(=O)n(-c3ccccc3C(C)C)c3cc(-c4c(C)ccc5[nH]ncc45)c(Cl)cc23)[C@H](C)C1 (single isomer, unassigned) [Compound I-3-2] |  | IC50 (numeric values): 250 nM |
| C=CC(=O)N1C[C@H](C)N(c2c(C#N)c(=O)n(-c3ccccc3C(C)C)c3cc(-c4c(C)ccc5[nH]ncc45)c(Cl)cc23)C[C@H]1C (single isomer, unassigned) [Compound I-4-1] |  | IC50 (class symbols): > 1000 nM |
| C=CC(=O)N1C[C@H](C)N(c2c(C#N)c(=O)n(-c3ccccc3C(C)C)c3cc(-c4c(C)ccc5[nH]ncc45)c(Cl)cc23)C[C@H]1C (single isomer, unassigned) [Compound I-4-2] |  | IC50 (class symbols): 100 to 1000 nM |
| C=CC(=O)N1CC2(CCN(c3c(C#N)c(=O)n(-c4ccccc4C(C)C)c4cc(-c5c(C)ccc6[nH]ncc56)c(Cl)cc34)CC2)C1 (single isomer, unassigned) [Compound I-5-1] |  | IC50 (class symbols): > 1000 nM |
| C=CC(=O)N1CC2(CCN(c3c(C#N)c(=O)n(-c4ccccc4C(C)C)c4cc(-c5c(C)ccc6[nH]ncc56)c(Cl)cc34)CC2)C1 (single isomer, unassigned) [Compound I-5-2] |  | IC50 (class symbols): 100 to 1000 nM |
| C=C(F)C(=O)N1CCN(c2c(C#N)c(=O)n(-c3ccccc3C(C)C)c3cc(-c4c(C)ccc5[nH]ncc45)c(Cl)cc23)[C@@H](C)C1 (single isomer, unassigned) [Compound I-6-1] |  | IC50 (class symbols): > 1000 nM |
| C=C(F)C(=O)N1CCN(c2c(C#N)c(=O)n(-c3ccccc3C(C)C)c3cc(-c4c(C)ccc5[nH]ncc45)c(Cl)cc23)[C@@H](C)C1 (single isomer, unassigned) [Compound I-6-2] |  | IC50 (class symbols): < 100 nM |
| C=CC(=O)N1CCN(c2c(C#N)c(=O)n(-c3ccccc3C(C)C)c3cc(-c4c(OC)ccc(Cl)c4F)c(Cl)cc23)[C@@H](C)C1 (single isomer, unassigned) [Compound I-7-1] |  | IC50 (class symbols): > 1000 nM |
| C=CC(=O)N1CCN(c2c(C#N)c(=O)n(-c3ccccc3C(C)C)c3cc(-c4c(OC)ccc(Cl)c4F)c(Cl)cc23)[C@@H](C)C1 (single isomer, unassigned) [Compound I-7-2] |  | IC50 (class symbols): 100 to 1000 nM |
| C=CC(=O)N1CCN(c2c(C#N)c(=O)n(-c3ccccc3C(C)C)c3cc(-c4c(N)cccc4F)c(Cl)cc23)[C@@H](C)C1 [Compound I-9] | 100 to 1000 |  |
| C=CC(=O)N1CCN(c2c(C#N)c(=O)n(-c3ccccc3C(C)C)c3cc(-c4ccccc4F)c(Cl)cc23)[C@@H](C)C1 [Compound I-10] | > 1000 |  |
| C=CC(=O)N1CCN(c2c(C#N)c(=O)n(-c3ccccc3C(C)C)c3cc(-c4ccc(Cl)cc4)c(Cl)cc23)[C@@H](C)C1 [Compound I-11] | > 1000 |  |
| C=CC(=O)N1CCN(c2c(C#N)c(=O)n(-c3ccccc3C(C)C)c3cc(-c4cc(N)ccc4F)c(Cl)cc23)[C@@H](C)C1 [Compound I-13] | 100 to 1000 |  |
| C=CC(=O)N1CCN(c2c(C#N)c(=O)n(-c3ccccc3C(C)C)c3cc(-c4cc(C)c(=O)n(C)c4)c(Cl)cc23)[C@@H](C)C1 [Compound I-16] | 100 to 1000 |  |
| C=CC(=O)N1CCN(c2c(C#N)c(=O)n(-c3ccccc3C(C)C)c3cc(-c4ccccc4C#N)c(Cl)cc23)[C@@H](C)C1 [Compound I-19] | > 1000 |  |
| C=CC(=O)N1CCN(c2c(C#N)c(=O)n(-c3ccccc3C(C)C)c3cc(-c4cccc5c4oc4ccccc45)c(Cl)cc23)[C@@H](C)C1 [Compound I-20] | 100 to 1000 |  |
| C=CC(=O)N1CCN(c2c(C#N)c(=O)n(-c3ccccc3C(C)C)c3cc(-c4cccc5ccncc45)c(Cl)cc23)[C@@H](C)C1 [Compound I-23] | 100 to 1000 |  |
| CCn1nccc1-c1cc2c(cc1Cl)c(N1CCN(C(C)=O)C[C@@H]1C)c(C#N)c(=O)n2-c1ccccc1C(C)C [Compound I-25] | 100 to 1000 |  |
| C=CC(=O)N1CCN(c2c(C#N)c(=O)n(-c3ccccc3C(C)C)c3cc(-c4cccc5c4OCCO5)c(Cl)cc23)[C@@H](C)C1 [Compound I-26] | 100 to 1000 |  |
| C=CC(=O)N1CCN(c2c(C#N)c(=O)n(-c3ccccc3C(C)C)c3cc(-c4cnc(C5CC5)nc4)c(Cl)cc23)[C@@H](C)C1 [Compound I-27] | 100 to 1000 |  |
| C=CC(=O)N1CCN(c2c(C#N)c(=O)n(-c3ccccc3C(C)C)c3cc(-c4cccc(Cl)c4F)c(Cl)cc23)[C@@H](C)C1 [Compound I-36] | 100 to 1000 |  |

More lines, main results first:

| IC50 [1] [nM] | SMILES | further results |
| --- | --- | --- |
| < 100 | C=CC(=O)N1CCN(c2c(C#N)c(=O)n(-c3ccccc3C(C)C)c3cc(-c4cc(Cl)cc(F)c4N)c(Cl)cc23)[C@@H](C)C1 (atropisomer, axis not shown) [Compound I-78] |  |
| 100 to 1000 | C=CC(=O)N1CCN(c2c(C#N)c(=O)n(-c3ccccc3C(C)C)c3cc(-c4ccccc4C(N)=O)c(Cl)cc23)[C@@H](C)C1 [Compound I-12] |  |
| 100 to 1000 | C=CC(=O)N1CCN(c2c(C#N)c(=O)n(-c3ccccc3C(C)C)c3cc(-c4cccc(F)c4)c(Cl)cc23)[C@@H](C)C1 [Compound I-14] |  |
| 100 to 1000 | C=CC(=O)N1CCN(c2c(C#N)c(=O)n(-c3ccccc3C(C)C)c3cc(-c4ccc(F)cc4)c(Cl)cc23)[C@@H](C)C1 [Compound I-15] |  |
| > 1000 | C=CC(=O)N1CCN(c2c(C#N)c(=O)n(-c3ccccc3C(C)C)c3cc(-c4cccc(Cl)c4)c(Cl)cc23)[C@@H](C)C1 [Compound I-17] |  |
| 100 to 1000 | C=CC(=O)N1CCN(c2c(C#N)c(=O)n(-c3ccccc3C(C)C)c3cc(-c4ccccc4Cl)c(Cl)cc23)[C@@H](C)C1 [Compound I-18] |  |
| 100 to 1000 | C=CC(=O)N1CCN(c2c(C#N)c(=O)n(-c3ccccc3C(C)C)c3cc(-c4c(C)cnn4C)c(Cl)cc23)[C@@H](C)C1 [Compound I-21] |  |
| < 100 | C=CC(=O)N1CCN(c2c(C#N)c(=O)n(-c3ccccc3C(C)C)c3cc(-c4ccc(F)c5ccccc45)c(Cl)cc23)[C@@H](C)C1 [Compound I-22] |  |
| < 100 | C=CC(=O)N1CCN(c2c(C#N)c(=O)n(-c3ccccc3C(C)C)c3cc(-c4ccc(Cl)c5ccccc45)c(Cl)cc23)[C@@H](C)C1 [Compound I-24] |  |
| > 1000 | C=CC(=O)N1CCN(c2c(C#N)c(=O)n(-c3ccccc3C(C)C)c3cc(-c4cc(C)c(C)cc4C)c(Cl)cc23)[C@@H](C)C1 [Compound I-28] |  |
| 100 to 1000 | C=CC(=O)N1CCN(c2c(C#N)c(=O)n(-c3ccccc3C(C)C)c3cc(-c4ccc(Cl)c(Cl)c4C)c(Cl)cc23)[C@@H](C)C1 [Compound I-29] |  |
| > 1000 | C=CC(=O)N1CCN(c2c(C#N)c(=O)n(-c3ccccc3C(C)C)c3cc(-c4cnc(OC)cc4C)c(Cl)cc23)[C@@H](C)C1 [Compound I-30] |  |
| < 100 | C=CC(=O)N1CCN(c2c(C#N)c(=O)n(-c3ccccc3C(C)C)c3cc(-c4c(OC)ccc5ccccc45)c(Cl)cc23)[C@@H](C)C1 [Compound I-31] |  |
| 100 to 1000 | C=CC(=O)N1CCN(c2c(C#N)c(=O)n(-c3ccccc3C(C)C)c3cc(-c4cnc(F)cc4C)c(Cl)cc23)[C@@H](C)C1 [Compound I-32] |  |
| > 1000 | C=CC(=O)N1CCN(c2c(C#N)c(=O)n(-c3ccccc3C(C)C)c3cc(-c4c(C)noc4C)c(Cl)cc23)[C@@H](C)C1 [Compound I-34] |  |
| < 100 | C=CC(=O)N1CCN(c2c(C#N)c(=O)n(-c3ccccc3C(C)C)c3cc(-c4c(N)ccc(Cl)c4F)c(Cl)cc23)[C@@H](C)C1 [Compound I-35] |  |
